Results published in EP1832586A1, “Thiazole-piperidine derivatives in treatment of diseases of liver and the pancreas” (Oridis Biomed Forschungs- und Entwicklungs GmbH, priority 2006, dated 2007).

Key:
Format in all cases: cell-based
HuH7 = experiment: CellTiter-Glo luminescent cell viability (proliferation) assay, HuH7; settings: inhibition of HuH7 (human hepatoma) proliferation, 48 hours incubation, 10% FCS
Description: (§1) To practically assess the impact of the thiazole-piperidine derivatives, e.g. derivatives of piperidinyl-thiazole carboxylic acid and/or piperidinyl thiazole carboxamide, in the treatment and/or prevention of diseases according to the invention, the inhibition of cell proliferation is determined by using a luminescent cell viability assay (CellTiter-Glo®; Promega, Madison, USA). The assay is based on the relation that the ATP content is directly proportional to the number of cells present in the culture. The CellTiter-Glo® assay is performed to measure the proliferation rate of human hepatoma (HuH7, PLC/PRF/5, Hep3B, SK-Hep1), human hepatoblastoma (HepG2), human colon carcinoma (CX-2), human breast cancer (SK-Br-3), human ovarian carcinoma (HeLa) and human pancreatic carcinoma (DAN-G) cell lines. […] In particular, the compound according to formula (1) wherein R^1 is 4-isopropoxycarbonylphenyl, R^2 is 3-indolylmethyl, R^3 is hydrogen, R^4 is hydrogen, n is zero, A is a single bond, B is carbonyl, and wherein the residue R^1NR^3CO is connected to the carbon atom bound to nitrogen of the thiazole ring (compound no. XI in Table 1) inhibits proliferation of the human cell lines HepG2 and Hep3B with 10.8 and 3.5 µM, respectively.
(§2) To determine the inhibition of cell proliferation a luminescent cell viability assay (CellTiter-Glo®; Promega, Madison, USA) is implemented. The assay is based on the relation that the ATP content is directly proportional to the number of cells present in the culture (Technical Bulletin No. 228 "CellTiter-Glo® Luminescent Cell viability Assay", Revised 2/04. Promeg, Madison, USA). The CellTiter-Glo® assay is performed to measure the proliferation rate of human hepatoma (HuH7, PLC/PRF/5, Hep3B, SK-Hep1), human hepatoblastoma (HepG2), human colon carcinoma (CX-2), human breast cancer (SK-Br-3), human ovarian carcinoma (HeLa) and human pancreatic carcinoma (DAN-G) cell lines. 3000 viable cells (viability ≥ 90%) are seeded in opaque-walled 96-well plates and incubated for 24 hours in DMEM, supplemented with 2 mM glutamin. Cell proliferation is stimulated by addition of FCS to a final concentration of 10% (v/v). Simultaneously the compounds (see Table 1 and 2) are added in a concentration range of 0 to 20 µM. Triplicates are measured for each concentration. Cells and compounds (see Table 1 and 2) are incubated for a period of 48 hours in a volume of 140 µl cell culture medium (10% (v/v) FCS, 2 mM Glutamin, DMEM). The compounds according to the invention are dissolved in 60% to 100% (v/v) DMSO at a concentration of 2 mM. The final DMSO concentration under assay conditions never exceeds 1% (v/v). Throughout the assay cells are kept in a humidified incubator (95% rH) at 37°C and 5% CO2.
(§3) The final cell number is determined after 48 hour of incubation. Therefore 140 µl CellTiter-Glo®Reagent is added in each well. The contents are mixed on an orbital shaker for 2 minutes at room temperature. After subsequent incubation for additional 10 minutes at room temperature the luminescence signal is recorded within 30 min. EC50 values are calculated using the four-parametric Hill equation (Sigma Plot). Control values are: • 1) 10% (v/v) FCS, 2 mM glutamin, DMEM -> maximum cell number • 2) 2 mM glutamin, DMEM -> initial cell number

SK-Br-3 = experiment: CellTiter-Glo luminescent cell viability (proliferation) assay, SK-Br-3; settings: Sk-Br-3 (human breast cancer) proliferation, 48 hours incubation, 10% FCS
Description: as §1, §2, §3

HeLa = experiment: CellTiter-Glo luminescent cell viability (proliferation) assay, HeLa; settings: Hela (human ovarian carcinoma [sic]) proliferation, 48 hours incubation, 10% FCS
Description: as §1, §2, §3

CX-2 = experiment: CellTiter-Glo luminescent cell viability (proliferation) assay, CX-2; settings: CX-2 (human colon carcinoma) proliferation, 48 hours incubation, 10% FCS
Description: as §1, §2, §3

DAN-G = experiment: CellTiter-Glo luminescent cell viability (proliferation) assay, DAN-G; settings: DAN-G (human pancreatic carcinoma) proliferation, 48 hours incubation, 10% FCS
Description: as §1, §2, §3

C#CCOC(=O)N1CCC(c2nc(C(=O)Nc3[nH]nc(C)c3-c3ccccc3)cs2)CC1 [L]
EC50 (HuH7; Homo sapiens, Huh-7, 48 h): 5.4 µM

Cc1ccc(S(=O)(=O)N2CCC(c3nc(C(=O)Nc4nnc(C(F)(F)F)s4)cs3)CC2)cc1Cl [XXVI]
EC50 (SK-Br-3): 19.3 µM | EC50 (HeLa): 11.1 µM | EC50 (HuH7; Homo sapiens, Huh-7, 48 h): 1.15 µM | EC50 (CX-2): 20.2 µM | EC50 (DAN-G): 13.5 µM

C#CCOC(=O)N1CCC(c2nc(C(=O)Nc3cc(-c4ccccc4)n[nH]3)cs2)CC1 [XXVIII]
EC50 (HuH7; Huh-7): 2.27 µM

Cc1ccc(NC(=O)c2csc(C3CCN(C(=O)CC4C=Nc5ccccc54)CC3)n2)c(F)c1 (stereo not shown) [XLVI]
EC50 (HuH7; Homo sapiens, Huh-7, 48 h): 4 µM

COc1ccc(CNC(=O)c2csc(C3CCN(C(=O)CC4C=Nc5ccccc54)CC3)n2)cc1 (stereo not shown) [XLI]
EC50 (HuH7; Homo sapiens, Huh-7, 48 h): 5.9 µM

Cc1nc(NC(=O)c2csc(C3CCN(C(=O)Cc4c[nH]c5ccccc45)CC3)n2)sc1C [XVII]
EC50 (SK-Br-3): 18.9 µM | EC50 (HeLa): 23.5 µM | EC50 (CX-2): > 20 µM | EC50 (DAN-G): 5.59 µM

O=C(Nc1ccc2c(c1)OCCO2)c1csc(C2CCN(C(=O)NC3C=C(c4ccccc4)N=N3)CC2)n1 (stereo not shown) [LII]
EC50 (HuH7; Homo sapiens, Huh-7, 48 h): 19.5 µM

O=C(NC1CCN(Cc2ccccc2)C1)c1csc(C2CCN(C(=O)CC3C=Nc4ccccc43)CC2)n1 (stereo not shown) [XXIX]
EC50 (HuH7; Homo sapiens, Huh-7, 48 h): 2.7 µM

CCOc1ccccc1N1CCN(C(=O)c2csc(C3CCN(C(=O)CC4C=Nc5ccccc54)CC3)n2)CC1 (stereo not shown) [XII]
EC50 (HuH7; Homo sapiens, Huh-7, 48 h): 13.4 µM

Cn1nc(-c2ccccc2)cc1NC(=O)c1csc(C2CCN(C(=O)C3CCCCC3)CC2)n1 [LIV]
EC50 (HuH7; Homo sapiens, Huh-7, 48 h): 5.5 µM

COc1ccc(C(=O)N2CCC(c3nc(C(=O)Nc4cc(-c5cccs5)n[nH]4)cs3)CC2)c(OC)c1OC [XXXIX]
EC50 (HuH7; Huh-7): 2.19 µM

Cc1nc(C)c(C(=O)N2CCC(c3nc(C(=O)Nc4cc(-c5ccccc5)nn4C)cs3)CC2)s1 [XXII]
EC50 (HuH7; Huh-7): 5.4 µM

Cc1ccc(OCC(=O)N2CCC(c3nc(C(=O)Nc4nccs4)cs3)CC2)cc1C [XXV]
EC50 (HuH7; Homo sapiens, Huh-7, 48 h): 5.8 µM

Cc1cc(Cl)ccc1CNC(=O)c1csc(C2CCN(C(=O)CC3C=Nc4ccccc43)CC2)n1 (stereo not shown) [XXXVI]
EC50 (HuH7; Homo sapiens, Huh-7, 48 h): 3.95 µM

O=C(Nc1cc(-c2ccccc2)n[nH]1)c1csc(C2CCN(C(=O)c3cc4ccccc4o3)CC2)n1 [XLIV]
EC50 (HuH7; Homo sapiens, Huh-7, 48 h): 2.53 µM

Cc1nc(C)c(C(=O)N2CCC(c3nc(C(=O)Nc4cc(-c5cccs5)nn4C)cs3)CC2)s1 [XXXV]
EC50 (HuH7; Homo sapiens, Huh-7, 48 h): 3.5 µM

O=C(NCc1ccccc1[N+](=O)[O-])c1csc(C2CCN(C(=O)Cc3c[nH]c4ccccc34)CC2)n1 [XL]
EC50 (SK-Br-3): 23.8 µM | EC50 (HeLa): 22.9 µM | EC50 (HuH7; Huh-7): 2.98 µM | EC50 (CX-2): 14.9 µM | EC50 (DAN-G): 9.01 µM

Cc1ccc2cc(NC(=O)c3csc(C4CCN(C(=O)CC5C=Nc6ccccc65)CC4)n3)ccc2n1 (stereo not shown) [V]
EC50 (SK-Br-3): 10.8 µM | EC50 (HeLa): 8.79 µM | EC50 (HuH7; Homo sapiens, Huh-7, 48 h): 4.68 µM | EC50 (CX-2): > 20 µM | EC50 (DAN-G): 6.9 µM

Cc1nc(C)c(C(=O)N2CCC(c3nc(C(=O)Nc4cc(-c5ccco5)n[nH]4)cs3)CC2)s1 [XLVIII]
EC50 (HuH7; Homo sapiens, Huh-7, 48 h): 13.9 µM

C#CC1(NC(=O)c2csc(C3CCN(C(=O)CC4C=Nc5ccccc54)CC3)n2)CCCCC1 (stereo not shown) [LVII]
EC50 (HuH7; Homo sapiens, Huh-7, 48 h): 5.1 µM

Cn1nc(-c2cccs2)cc1NC(=O)c1csc(C2CCN(C(=O)c3ccccc3C(F)(F)F)CC2)n1 [XVIII]
EC50 (HuH7; Huh-7): 13.4 µM

O=C(CC1C=Nc2ccccc21)N1CCC(c2nc(C(=O)N3CCN(c4ncccn4)CC3)cs2)CC1 (stereo not shown) [LIII]
EC50 (SK-Br-3): 19.5 µM | EC50 (HeLa): 23.6 µM | EC50 (HuH7; Homo sapiens, Huh-7, 48 h): 1.63 µM | EC50 (CX-2): > 20 µM | EC50 (DAN-G): 18.2 µM

O=C(Nc1ccc2c(c1)C(=O)OC2)c1csc(C2CCN(C(=O)CC3C=Nc4ccccc43)CC2)n1 (stereo not shown) [LIX]
EC50 (HuH7; Homo sapiens, Huh-7, 48 h): 7.13 µM

COc1ccc(C(N)=O)cc1NC(=O)c1csc(C2CCN(C(=O)Cc3ccccc3Cl)CC2)n1 [XXXIV]
EC50 (HuH7; Homo sapiens, Huh-7, 48 h): 4.24 µM
